For the assay, the target named is T1, AMPA (GluR1) receptor (Homo sapiens, UniProt P42261).
T1 construct: expressed in transfected cells; host or cells: HEK cells (HEK.GluR1(i)), kept under hygromycin selection
In words: Ca2+ influx fluorescence assay (FLEXstation, Fluo-3) in HEK.GluR1(i) cells. In kind it is cell-based. The note with it: glutamate +/- test compound, read-out: EC50, positive modulation of the AMPA receptor. The source says:
The compounds in this invention may be tested using a biological assay which measures Ca^2+ influx mediated through positive modulation of the AMPA (GluR1) receptor using standard techniques in the art such as, but not limited to, a FLEXstation (manufactured by Molecular Devices, Sunnyvale, Calif.). An optical readout using fluorescent probes is employed to measure ion channel dependent changes in intracellular ion concentration or membrane potential. The assay utilises the Ca^2+ conductance of functional homomeric GluR1(i) AMPA receptors to generate glutamate-dependent Ca^2+ responses. Influx of Ca^2+ through the ion channel is measured indirectly through an increase in intracellular Ca^2+ levels using the calcium sensitive dye such as, but not limited to, Fluo-3 (Molecular Devices, Sunnyvale, Calif.) in FLEXstation. A positive AMPA receptor modulator, in the presence of glutamate, will result in an influx of Ca^2+ through the ion channel which can be measured indirectly through an increase in intracellular Ca2+ levels using the calcium sensitive dye Fluo-3 in FLEXstation.
HEK.GluR1(i) cells were maintained in DMEM supplemented with 10% fetaclone II, 1% non-essential amino acids and 150 μg/mL hygromycin, at 37° C./5% CO2. […]

T1 sequence (P42261 19-906 isoform P42261-2 limits assumed, species assumed): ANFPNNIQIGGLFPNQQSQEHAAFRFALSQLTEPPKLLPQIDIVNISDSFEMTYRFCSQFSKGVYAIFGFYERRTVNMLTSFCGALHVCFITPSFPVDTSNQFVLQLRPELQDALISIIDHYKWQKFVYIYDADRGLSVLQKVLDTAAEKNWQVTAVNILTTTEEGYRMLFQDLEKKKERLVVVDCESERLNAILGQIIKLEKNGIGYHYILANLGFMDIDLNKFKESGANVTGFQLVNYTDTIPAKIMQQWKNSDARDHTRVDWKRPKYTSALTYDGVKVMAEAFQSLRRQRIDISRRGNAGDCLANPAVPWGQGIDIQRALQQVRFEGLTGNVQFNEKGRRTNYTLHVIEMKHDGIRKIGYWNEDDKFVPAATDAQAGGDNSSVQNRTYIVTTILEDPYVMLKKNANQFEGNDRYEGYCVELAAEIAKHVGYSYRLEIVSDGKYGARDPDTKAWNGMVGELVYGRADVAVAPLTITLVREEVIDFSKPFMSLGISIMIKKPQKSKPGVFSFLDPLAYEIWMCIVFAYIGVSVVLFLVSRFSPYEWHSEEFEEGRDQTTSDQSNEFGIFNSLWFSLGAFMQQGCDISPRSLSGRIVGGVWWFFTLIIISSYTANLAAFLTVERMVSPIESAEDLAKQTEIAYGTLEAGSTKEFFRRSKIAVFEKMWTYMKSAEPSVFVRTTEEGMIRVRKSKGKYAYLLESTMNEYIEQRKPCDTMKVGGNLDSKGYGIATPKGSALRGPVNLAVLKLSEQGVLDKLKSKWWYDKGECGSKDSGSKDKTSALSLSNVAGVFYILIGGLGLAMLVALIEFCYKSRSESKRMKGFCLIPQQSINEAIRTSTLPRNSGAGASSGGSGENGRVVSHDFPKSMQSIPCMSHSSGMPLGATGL

Regarding `CC(C)S(=O)(=O)N[C@H]1Cc2ccc(Oc3cccc(C(F)(F)F)c3)cc2C1` [Example 9, (S)-N-(5-(3-(trifluoromethyl)phenoxy)-2,3-dihydro-1H-inden-2-yl)propane-2-sulfonamide], the EC50 was determined as 2300 nM.

Usually EC50 stands for the concentration at which the effect is half-maximal.
